Measured values as given in patent publication US9381193B2, “Contraceptive methods and compositions” (WASHINGTON UNIVERSITY, priority 2011, dated 2016).

Test system: ESC-T cells
Test: EdU incorporation proliferation assay
Assay type: cell-based, human
Excerpt: Other groups have shown that DHEA has anti-proliferative effects in a number of cell-lines and tissues. Thus, it was hypothesized that perhaps the PPP inhibitors prevent the proliferation of ESC-Ts and that this is an additional effect, independent of their role in decidualization inhibition. In a human uterus the stromal cells go through a cyclical oscillation between proliferation and differentiation, determined by the hormonal milieu. ESC-Ts in vitro remain in the proliferative state until they are exposed to differentiation media, which causes the cells to halt cell division and enter differentiation. Proliferation of ESC-T cells were monitored by EdU incorporation in vitro, which indicates entry into the S-phase of the cell cycle, in the absence of the differentiation hormones.
Following 60 hr of the treatment indicated in the experiment, EdU was added to the culture medium at a concentration of […]. Cells were harvested and stained using the Click-iT EdU Flow Cytometry Kit (Invitrogen). Quantitative data were collected using a BD FACSCalibur flow cytometer (Becton Dickinson, San Jose, Calif.) and analyzed with FlowJo software (TreeSTar, Inc., Ashland, Oreg.). For confocal microscopy, the cells were stained on coverslips using the same protocol. Nuclei were counterstained with TOPRO-iodide (Molecular probes) at a 1:500 dilution. Cells were mounted on slides using Vectashield (Vector Labs) and visualized using a Nikon C1 microscope.

Which “EdU-positive nuclei vs DMSO control” value (100 μM DHEA, 50 μM 6AN) does the source give for `C[C@]12CC[C@H](O)CC1=CC[C@@H]1[C@@H]2CC[C@]2(C)C(=O)CC[C@@H]12` [DHEA, dehydroepiandrosterone] here?
The value was “drastic decrease”.

What about the “Proliferation by EdU geometric mean fluorescence intensity (flow cytometry)” value (4 independent experiments) of the same compound?
Its value is “decreases proliferation of ESC-Ts in a concentration dependent manner”.
